Test results published in PubChem BioAssay (NCI).
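The concentration for 50% growth inhibition is given as GI50. TGI: concentration producing complete growth inhibition.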

What was measured:
Experiment in all cases: growth of human tumour cells (NCI), 384-well format
[1] = system: 786-0 renal
[2] = system: A498 renal
[3] = system: A549 NSCLC
[4] = system: BT-549 breast
[5] = system: CAKI-1 renal
[6] = system: CCRF-CEM leukemia
[7] = system: COLO 205 colon
[8] = system: DU-145 prostate
[9] = system: HCC-2998 colon
[10] = system: HCT-116 colon
[11] = system: HCT-15 colon
[12] = system: HOP-62 NSCLC
[13] = system: HS 578T breast
[14] = system: HT29 colon
[15] = system: IGROV1 ovarian
[16] = system: KM12 colon
[17] = system: M14 melanoma
[18] = system: MALME-3M melanoma
[19] = system: MCF7 breast
[20] = system: MDA-MB-231 breast
[21] = system: MDA-MB-468 breast
[22] = system: MOLT-4 leukemia
[23] = system: NCI-H226 lung
[24] = system: NCI-H23 lung
[25] = system: NCI-H322M lung
[26] = system: NCI-H460 NSCLC
[27] = system: NCI-H522 lung
[28] = system: NCI/ADR-RES ovarian
[29] = system: OVCAR-3 ovarian
[30] = system: OVCAR-4 ovarian
[31] = system: OVCAR-5 ovarian
[32] = system: OVCAR-8 ovarian
[33] = system: PC-3 prostate
[34] = system: RPMI-8226 leukemia
[35] = system: SF-295 CNS
[36] = system: SF-539 CNS
[37] = system: SK-MEL-2 melanoma
[38] = system: SK-MEL-28 melanoma
[39] = system: SK-MEL-5 melanoma
[40] = system: SN12C renal
[41] = system: SNB-19 CNS
[42] = system: SNB-75 CNS
[43] = system: SR leukemia
[44] = system: SW-620 colon
[45] = system: T-47D breast
[46] = system: UACC-257 melanoma
[47] = system: UACC-62 melanoma

Question: With C[C@@H](Oc1cc(-n2cnc3ccc(CN4CCN(C)CC4)cc32)sc1C(N)=O)c1ccccc1C(F)(F)F as the compound, how does the GI50 [1] read?
Answer: The GI50 was 1170 nM.

Question: And the TGI [1]?
Answer: The TGI was 2730 nM.

Question: What about the GI50 [2] of the same compound?
Answer: The GI50 was 871 nM.

Question: What about the TGI [2] of the same compound?
Answer: The TGI was 12200 nM.

Question: What about the GI50 [3] of the same compound?
Answer: Its GI50 is 819 nM.

Question: And the TGI [3]?
Answer: The TGI was 6850 nM.

Question: And the GI50 [4]?
Answer: The GI50 was 422 nM.

Question: And the TGI [4]?
Answer: Its TGI is 1910 nM.

Question: And the GI50 [5]?
Answer: Its GI50 is 1630 nM.

Question: And the TGI [5]?
Answer: The TGI was 4500 nM.

Question: And the GI50 [6]?
Answer: Its GI50 is 180 nM.

Question: And the TGI [6]?
Answer: The TGI was 329 nM.

Question: And the GI50 [7]?
Answer: Its GI50 is 256 nM.

Question: And the TGI [7]?
Answer: The TGI was 617 nM.

Question: And the GI50 [8]?
Answer: Its GI50 is 346 nM.

Question: And the TGI [8]?
Answer: Its TGI is 1210 nM.

Question: And the GI50 [9]?
Answer: Its GI50 is 595 nM.

Question: What about the TGI [9] of the same compound?
Answer: The TGI was 1890 nM.

Question: And the GI50 [10]?
Answer: The GI50 was 534 nM.

Question: What about the TGI [10] of the same compound?
Answer: Its TGI is 3040 nM.

Question: What about the GI50 [11] of the same compound?
Answer: The GI50 was 374 nM.

Question: What about the TGI [11] of the same compound?
Answer: The TGI was 1200 nM.

Question: What about the GI50 [12] of the same compound?
Answer: The GI50 was 465 nM.

Question: What about the TGI [12] of the same compound?
Answer: The TGI was 2340 nM.

Question: What about the GI50 [13] of the same compound?
Answer: Its GI50 is 1010 nM.

Question: What about the TGI [13] of the same compound?
Answer: The TGI was 2580 nM.

Question: And the GI50 [14]?
Answer: The GI50 was 360 nM.

Question: What about the TGI [14] of the same compound?
Answer: Its TGI is 1250 nM.

Question: And the GI50 [15]?
Answer: The GI50 was 844 nM.

Question: And the TGI [15]?
Answer: Its TGI is 11400 nM.

Question: What about the GI50 [16] of the same compound?
Answer: The GI50 was 296 nM.

Question: And the TGI [16]?
Answer: Its TGI is 982 nM.

Question: What about the GI50 [17] of the same compound?
Answer: Its GI50 is 573 nM.

Question: And the TGI [17]?
Answer: Its TGI is 1860 nM.

Question: What about the GI50 [18] of the same compound?
Answer: Its GI50 is 1150 nM.

Question: What about the TGI [18] of the same compound?
Answer: The TGI was 2370 nM.

Question: What about the GI50 [19] of the same compound?
Answer: The GI50 was 384 nM.

Question: And the TGI [19]?
Answer: Its TGI is 2500 nM.

Question: And the GI50 [20]?
Answer: Its GI50 is 679 nM.

Question: And the TGI [20]?
Answer: Its TGI is 10600 nM.

Question: What about the GI50 [21] of the same compound?
Answer: The GI50 was 214 nM.

Question: And the TGI [21]?
Answer: The TGI was 446 nM.

Question: What about the GI50 [22] of the same compound?
Answer: Its GI50 is 193 nM.

Question: What about the TGI [22] of the same compound?
Answer: Its TGI is 342 nM.

Question: And the GI50 [23]?
Answer: The GI50 was 3550 nM.

Question: What about the TGI [23] of the same compound?
Answer: Its TGI is 17800 nM.

Question: What about the GI50 [24] of the same compound?
Answer: The GI50 was 384 nM.

Question: And the TGI [24]?
Answer: The TGI was 1680 nM.

Question: And the GI50 [25]?
Answer: Its GI50 is 1780 nM.

Question: What about the TGI [25] of the same compound?
Answer: The TGI was 9790 nM.

Question: What about the GI50 [26] of the same compound?
Answer: Its GI50 is 320 nM.

Question: What about the TGI [26] of the same compound?
Answer: Its TGI is 906 nM.

Question: What about the GI50 [27] of the same compound?
Answer: Its GI50 is 206 nM.

Question: What about the TGI [27] of the same compound?
Answer: The TGI was 445 nM.

Question: What about the GI50 [28] of the same compound?
Answer: The GI50 was 1690 nM.

Question: What about the TGI [28] of the same compound?
Answer: Its TGI is 3590 nM.

Question: What about the GI50 [29] of the same compound?
Answer: Its GI50 is 227 nM.

Question: And the TGI [29]?
Answer: The TGI was 534 nM.

Question: And the GI50 [30]?
Answer: The GI50 was 1810 nM.

Question: And the TGI [30]?
Answer: The TGI was 10200 nM.

Question: What about the GI50 [31] of the same compound?
Answer: The GI50 was 532 nM.

Question: And the TGI [31]?
Answer: The TGI was 3760 nM.

Question: And the GI50 [32]?
Answer: Its GI50 is 348 nM.

Question: And the TGI [32]?
Answer: The TGI was 1290 nM.

Question: And the GI50 [33]?
Answer: The GI50 was 804 nM.

Question: What about the TGI [33] of the same compound?
Answer: Its TGI is 11400 nM.

Question: And the GI50 [34]?
Answer: The GI50 was 250 nM.

Question: What about the TGI [34] of the same compound?
Answer: The TGI was 734 nM.

Question: And the GI50 [35]?
Answer: The GI50 was 1050 nM.

Question: And the TGI [35]?
Answer: Its TGI is 9340 nM.

Question: And the GI50 [36]?
Answer: Its GI50 is 462 nM.

Question: What about the TGI [36] of the same compound?
Answer: The TGI was 1720 nM.

Question: And the GI50 [37]?
Answer: The GI50 was 272 nM.

Question: What about the TGI [37] of the same compound?
Answer: The TGI was 839 nM.

Question: And the GI50 [38]?
Answer: The GI50 was 1530 nM.

Question: What about the TGI [38] of the same compound?
Answer: Its TGI is 2940 nM.

Question: And the GI50 [39]?
Answer: The GI50 was 359 nM.

Question: What about the TGI [39] of the same compound?
Answer: The TGI was 1640 nM.

Question: And the GI50 [40]?
Answer: The GI50 was 2890 nM.

Question: And the TGI [40]?
Answer: Its TGI is 15400 nM.

Question: What about the GI50 [41] of the same compound?
Answer: The GI50 was 1180 nM.

Question: What about the TGI [41] of the same compound?
Answer: The TGI was 15000 nM.

Question: And the GI50 [42]?
Answer: The GI50 was 1680 nM.

Question: What about the TGI [42] of the same compound?
Answer: Its TGI is 5300 nM.

Question: What about the GI50 [43] of the same compound?
Answer: Its GI50 is 146 nM.

Question: And the TGI [43]?
Answer: Its TGI is 294 nM.

Question: What about the GI50 [44] of the same compound?
Answer: The GI50 was 340 nM.

Question: And the TGI [44]?
Answer: Its TGI is 1510 nM.

Question: What about the GI50 [45] of the same compound?
Answer: The GI50 was 1830 nM.

Question: And the TGI [45]?
Answer: The TGI was 5230 nM.

Question: And the GI50 [46]?
Answer: The GI50 was 1150 nM.

Question: What about the TGI [46] of the same compound?
Answer: Its TGI is 2370 nM.

Question: What about the GI50 [47] of the same compound?
Answer: The GI50 was 613 nM.

Question: What about the TGI [47] of the same compound?
Answer: The TGI was 2100 nM.
